According to patent US4820834A, “Benzodiazepine analogs” (priority 1987, dated 1989):
Read-outs that look alike come from different tables or passages of the source.

Experiments:
CCK receptor (pancreas) = target: T1, CCK receptor (pancreas) (Rattus norvegicus, UniProt P30551); assay: CCK Receptor Binding (Pancreas): inhibition of ^125 I-CCK-33 binding; design: species or system Male Sprague-Dawley rats; conditions: rat pancreas membranes, ^125 I-CCK-33, 37° C., 30 minutes
T1 construct: The whole pancreas was dissected free of fat tissue and was homogenized; from tissue; host or cells: rat pancreas membranes (Sprague-Dawley)
T1 sequence (P30551 1-444): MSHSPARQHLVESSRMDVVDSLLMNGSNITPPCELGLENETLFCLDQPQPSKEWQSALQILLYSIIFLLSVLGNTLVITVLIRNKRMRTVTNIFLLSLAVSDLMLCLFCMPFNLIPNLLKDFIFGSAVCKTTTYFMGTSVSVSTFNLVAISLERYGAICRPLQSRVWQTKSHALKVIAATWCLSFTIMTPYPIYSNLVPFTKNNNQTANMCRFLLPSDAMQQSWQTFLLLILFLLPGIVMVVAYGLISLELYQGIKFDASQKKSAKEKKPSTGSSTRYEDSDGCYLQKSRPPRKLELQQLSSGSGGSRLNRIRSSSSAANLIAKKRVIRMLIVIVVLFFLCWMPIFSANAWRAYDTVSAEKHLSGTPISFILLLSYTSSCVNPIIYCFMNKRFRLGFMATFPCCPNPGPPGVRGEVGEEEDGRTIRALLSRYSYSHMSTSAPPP
Method: 1. CCK Receptor Binding (Pancreas)
CCK-33 was radiolabeled with ^125 I-Bolton Hunter reagent (2000 Ci/mmole) as described by Sankara et al. (J. Biol. Chem. 254: 9349-9351, 1979). Receptor binding was performed according to Innis and Snyder (Proc. Natl. Acad. Sci. 77: 6917-6921, 1980) with the minor modification of adding the additional protease inhibitors, phenylmethane sulfonyl fluoride and o-phenanthroline.
Male Sprague-Dawley rats (200-350 g) were sacrificed by decapitation. The whole pancreas was dissected free of fat tissue and was homogenized in 20 volumes of ice-cold 50 mM, Tris HCl (pH 7.7 at 25° C.) with a Brinkmann Polytron PT 10. The homogenates were centrifuged at 48,000 g for 10 min. Pellets were resuspended in Tris Buffer, centrifuged as above and resuspended in 200 volumes of binding assay buffer (50 mM Tris HCl, pH 7.7 at 25° C., 5 mM dithiothrietol, 0.1 mM bacitracin, 1.2 mM phenylmethane sulfonyl fluoride and 0.5 mM o-phenanthroline). […] All assays were run in duplicate or triplicate. The reaction mixtures were incubated at 37° C. for 30 minutes and centrifuged in a Beckman Microfuge (4 minutes) immediately after adding 1 ml of ice-cold incubation buffer. The supernatant was aspirated and discarded, pellets were counted with a Beckman gamma 5000. For Scatchard analysis (Ann. N.Y. Acad. Sci. 51: 660, 1949), ^125 I-CCK-33 was progressively diluted with increasing concentrations of CCK-33.

[1] = target: T2, CCK receptor (brain, cerebral cortex) (Cavia porcellus, UniProt H0VZC5); assay: biochemical; format: binding, Male Hartley guinea pigs; conditions: guinea pig cerebral cortex, ^125 I-CCK-33, 25° C., 2 hours
T2 construct: Cerebral cortex was dissected and used as a receptor source; from tissue; host or cells: guinea pig cerebral cortex membranes (male Hartley)
T2 sequence (H0VZC5 1-426): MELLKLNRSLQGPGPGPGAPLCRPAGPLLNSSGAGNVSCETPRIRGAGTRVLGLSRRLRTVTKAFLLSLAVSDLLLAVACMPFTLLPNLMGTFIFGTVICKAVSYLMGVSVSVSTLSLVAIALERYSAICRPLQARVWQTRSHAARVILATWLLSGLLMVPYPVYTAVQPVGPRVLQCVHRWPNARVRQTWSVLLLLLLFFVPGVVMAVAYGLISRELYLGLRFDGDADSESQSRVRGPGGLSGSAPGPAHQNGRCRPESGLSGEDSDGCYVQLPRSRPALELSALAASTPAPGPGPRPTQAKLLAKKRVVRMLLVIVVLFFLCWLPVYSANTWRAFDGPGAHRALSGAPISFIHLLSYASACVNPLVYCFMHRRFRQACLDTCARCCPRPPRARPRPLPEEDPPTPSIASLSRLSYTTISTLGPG
How it was run: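 Guinea pig cerebral cortex homogenate as receptor source, with radiolabeled CCK-33 in HEPES buffer containing MgCl2, bacitracin, EGTA and 0.4% BSA. Incubation 2 h at 25°C; bound ligand pelleted by centrifugation and gamma-counted.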

[2] = read-out: IC50 ^125 I-CCK Pancreas
[3] = read-out: IC50 ^125 I-CCK Brain

`Fc1ccccc1C1=N[C@H](Cc2c[nH]c3ccccc23)CNc2ccccc21` [Example 12, 1,3-Dihydro-5-(2-fluorophenyl)-3(R)-(3'-indolyl)methyl-2H-1,4-benzodiazepin] was tested, and the IC50 (CCK receptor (pancreas); IC50 ^125 I-CCK Pancreas) was 4 µM.
`O=C1[C@@H](Cc2c[nH]c3ccccc23)N=C(c2ccccc2F)c2ccccc2N1CC1CC1` [Example 37, 1-Cyclopropylmethyl-1,3-dihydro-5-(2-fluorophenyl)-3(R)-(3'-indolyl)methyl-2H-1,4-benzodiazepin-2-one] was tested, and the IC50 (CCK receptor (pancreas); IC50 ^125 I-CCK Pancreas) was 2.2 µM.
For `O=C1Nc2ccccc2C(c2ccccc2F)=NC1Cc1c[nH]c2ccc(F)cc12` (racemic) [Example 59, 1,3-Dihydro-3(RS)-[3'-(5'-fluoroindolyl)methyl]-5-o-fluorophenyl-2H-1,4-benzpdiazepin-2-one], the IC50 (CCK receptor (pancreas); IC50 ^125 I-CCK Pancreas) was 1.4 µM.
`O=C(O)c1ccccc1C1=N[C@H](Cc2c[nH]c3ccccc23)C(=O)Nc2ccccc21` [Example 58, 5-o-Carboxyphenyl-1,3-dihydro-3(R)-(3+-indolyl)methyl-2H-1,4-benzodiazepin-2-one] gave an IC50 (CCK receptor (pancreas); IC50 ^125 I-CCK Pancreas) of 18 µM.
In the case of `O=C1Nc2ccc(Cl)cc2C(c2ccccc2)=N[C@@H]1Cc1ccccc1` [Example 13, 7-Chloro-1,3-dihydro-3(R)-benzyl-5-phenyl-2H-1,4-benzodiazepin-2-one], the IC50 (CCK receptor (pancreas); IC50 ^125 I-CCK Pancreas) is reported as 80 µM.
`CN1C(=O)[C@@H](Cc2cn(C)c3ccccc23)N=C(c2ccccc2F)c2ccccc21` [4a & 44] showed an IC50 (CCK receptor (pancreas); IC50 ^125 I-CCK Pancreas) of 0.36 µM.
With `O=C1[C@H](Cc2c[nH]c3ccccc23)N=C(c2ccccc2)c2cc(Cl)ccc2N1Cc1ccccc1` [Example 33, 1-Benzyl-7-chloro-1,3-dihydro-3(S)-(3'-indolyl) methyl-5-phenyl-2H-1,4-benzodiazepin-2-one] the IC50 (CCK receptor (pancreas); IC50 ^125 I-CCK Pancreas) was greater than 100 µM and the IC50 ([1]; IC50 ^125 I-CCK Brain) was greater than 100 µM.
`O=C1Nc2ccccc2C(c2ccccc2F)=NC1c1ccsc1` (racemic) [Example 20, 1,3-Dihydro-5-(2-fluorophenyl)-3(RS)-(3-thienyl)-2H-1,4-benzodiazepin-2-one] showed an IC50 (CCK receptor (pancreas); IC50 ^125 I-CCK Pancreas) greater than 100 µM.
`CC1=N[C@H](Cc2c[nH]c3ccccc23)C(=O)Nc2ccccc21` [Example 29, 1,3-Dihydro-3(R)-(3'-indolyl)methyl-5-methyl-2H-1,4-benzodiazepin-2-one] showed an IC50 (CCK receptor (pancreas); [2]) of 48 µM.
In the case of `O=C1[C@@H](Cc2c[nH]c3ccccc23)N=C(c2ccccc2)c2cc(Cl)ccc2N1Cc1ccccc1` [Example 30, 1-Benzyl-7-chloro-1,3-dihydro-3(R)-(3'-indolyl) methyl-5-phenyl-2H-1,4-benzodiazepin-2-one], the IC50 (CCK receptor (pancreas); IC50 ^125 I-CCK Pancreas) is reported as greater than 100 µM and the IC50 ([1]; IC50 ^125 I-CCK Brain) is reported as greater than 100 µM.
`O=C1Nc2ccc(Cl)cc2C(c2ccccc2)=N[C@@H]1Cc1ccc(OCc2ccccc2)cc1` [Example 16, 7-Chloro-1,3-dihydro-3(R)-(4-benzyloxybenzyl)-5-phenyl-2H-1,4-benzodiazepin-2-one] gave an IC50 (CCK receptor (pancreas); IC50 ^125 I-CCK Pancreas) greater than 100 µM and an IC50 ([1]; IC50 ^125 I-CCK Brain) greater than 100 µM.
For `CN(C)CCN1C(=O)[C@@H](Cc2c[nH]c3ccccc23)N=C(c2ccccc2F)c2ccccc21` [Example 41, 1,3-Dihydro-1-(2-dimethylaminoethyl)-5-(2-fluorophenyl) 3(R)-(3'-indolyl)methyl-2H-1,4-benzodiazepin-2-one], the IC50 (CCK receptor (pancreas); IC50 ^125 I-CCK Pancreas) was 100 µM.
With `O=C1Nc2ccccc2C(c2ccccc2F)=N[C@@H]1Cc1c[nH]c2ccccc12` [2 & 3] the IC50 (CCK receptor (pancreas); IC50 ^125 I-CCK Pancreas) was 0.4 µM.
`CN1C(=O)[C@@H](Cc2cn(C)c3ccccc23)N(C(=O)c2ccc(Cl)cc2)C(c2ccccc2F)c2ccccc21` (stereo partly drawn) [Example 27a, 4-(p-Chlorobenzoyl)-5-(2-fluorophenyl)-3(R)-[3'-(1'-methylindolyl)-methyl]-1-methyl-1,3,4,5-tetrahydro-2H-1,4-benzodiazepin-2-one] showed an IC50 (CCK receptor (pancreas); [2]) greater than 100 µM and an IC50 [1, 3] greater than 100 µM.
Compound `CN1CC(CC2N=C(c3ccccc3)c3ccccc3N(C)C2=O)c2ccccc21` (stereo not drawn) [Example 211, 3-((2,3-Dihydro-1-methyl-1H-indol-3-yl)methyl)-1,3-dihydro-1-methyl-5-phenyl-2H-1,4-benzodiazepin-2-one] has an IC50 (CCK receptor (pancreas); IC50 ^125 I-CCK Pancreas) of 13 µM and an IC50 ([1]; IC50 ^125 I-CCK Brain) of 93 µM.
For `O=C1Nc2ccccc2C(c2ccccc2)=N[C@@H]1Cc1c[nH]c2ccccc12` [Example 6, 1,3-Dihydro-3(R)-(3'-indolyl)methyl-5-phenyl-2H-1,4-benzodiazepin-2-one], the IC50 (CCK receptor (pancreas); IC50 ^125 I-CCK Pancreas) was 1.2 µM and the IC50 ([1]; IC50 ^125 I-CCK Brain) was 50 µM.
`CC(=O)N1C(c2ccccc2F)c2ccccc2N(C)C(=O)[C@H]1Cc1cn(C)c2ccccc12` (stereo partly drawn) [Example 27b, 4-acetyl-5-(2-fluorophenyl)-3(R)-[3'-(1'-methylindolyl)-methyl]-1-methyl-1,3,4,5-tetrahydro-2H-1,4-benzodiazepin-2-one] showed an IC50 (CCK receptor (pancreas); [2]) of 100 µM and an IC50 [1, 3] greater than 100 µM.
`O=C1Nc2ccc(Cl)cc2C(c2ccccc2)=NC1Cc1cccc2ccccc12` (racemic) [Example 17, 7-Chloro-1,3-dihydro-3(RS)-(1-naphthyl)methyl-5-phenyl-2H-1,4-benzodiazepin-2-one] gave an IC50 (CCK receptor (pancreas); IC50 ^125 I-CCK Pancreas) of 23 µM and an IC50 ([1]; IC50 ^125 I-CCK Brain) of 100 µM.
`CN1C(=O)/C(=C/c2ccsc2)N=C(c2ccccc2)c2ccccc21` [95 Z] was tested, and the IC50 (CCK receptor (pancreas); IC50 ^125 I-CCK Pancreas) was 100 µM.
Compound `O=C1Nc2ccc(Cl)cc2C(c2ccccc2)N[C@@H]1Cc1c[nH]c2ccccc12` (stereo partly drawn) [Example 25, 7-Chloro-1,3,4,5-tetrahydro-3(R)-(3'-indolyl)methyl-5-phenyl-2H-1,4-benzodiazepin-2-one] has an IC50 (CCK receptor (pancreas); [2]) of 12 µM and an IC50 [1, 3] greater than 100 µM.
Compound `CC(C)CC(NC(=O)OC(C)(C)C)C(=O)N1CC(CC2N=C(c3ccccc3)c3ccccc3NC2=O)c2ccccc21` (stereo not drawn) [Example 225, (1-((3-((2,3-Dihydro-2-oxo-5-phenyl-1H-1,4-benzodiazepin-3-yl)methyl)-2,3-dihydro-1H-indol-1-yl)carbonyl)-3-methylbutyl)-carbamic acid-1,1-dimethylethyl ester] has an IC50 (CCK receptor (pancreas); IC50 ^125 I-CCK Pancreas) of 4.7 µM.
`CCCCCN1C(=O)[C@@H](Cc2c[nH]c3ccccc23)N=C(c2ccccc2F)c2ccccc21` [Example 38, 1,3-Dihydro-5-(2-fluorophenyl)-3(R)-(3'-indolyl) methyl-1-pentyl-2H-1,4-benzodiazepin-2-one] showed an IC50 (CCK receptor (pancreas); IC50 ^125 I-CCK Pancreas) of 100 µM.
`O=C1[C@@H](Cc2c[nH]c3ccccc23)N=C(c2ccccc2F)c2ccccc2N1CC(F)(F)F` [Example 40, 1,3-Dihydro-5-(2-fluorophenyl)-3(R)-(3'-indolyl)methyl-1-(2,2,2-trifluoroethyl)-2H-1,4-benzodiazepin-2-one] showed an IC50 (CCK receptor (pancreas); IC50 ^125 I-CCK Pancreas) of 3.6 µM.
In the case of `O=C1Nc2ccccc2C(c2ccccc2)=NC1CC1CNc2ccccc21` (stereo not drawn) [Example 199, 3-((2,3-Dihydro-1H-indol-3-yl)methyl)-1,3-dihydro-5-phenyl-2H-1,4-benzodiazepin-2-one], the IC50 (CCK receptor (pancreas); IC50 ^125 I-CCK Pancreas) is reported as 3.2 µM.
Compound `NC(=O)CN1C(=O)[C@@H](Cc2c[nH]c3ccccc23)N=C(c2ccccc2F)c2ccccc21` [Example 123, 1-Carboxamidomethyl-1,3-dihydro-3R-(3-indolylmethyl)-5-(2-fluorophenyl)-2H-1,4-benzodiazepin-2-one] has an IC50 (CCK receptor (pancreas); IC50 ^125 I-CCK Pancreas) of 2.1 µM.
Work on `O=C1Nc2ccccc2C(c2ccccc2F)=N[C@H]1Cc1c[nH]c2ccccc12` [Example 32, 1,3-Dihydro-5-(2-fluorophenyl)-3(S)-(3'-indolyl) methyl-2H-1,4-benzodiazepin-2-one] yielded an IC50 (CCK receptor (pancreas); IC50 ^125 I-CCK Pancreas) of 10.6 µM.
`CN1C(=O)/C(=C\c2ccsc2)N=C(c2ccccc2)c2ccccc21` [95 E] gave an IC50 (CCK receptor (pancreas); IC50 ^125 I-CCK Pancreas) of 25 µM.
